Reference: patent US10583162B2, “Compositions useful in the prevention and/or treatment of osteoarticular inflammation and pain and cartilage damage” (Indena S.P.A., priority 2016, dated 2020)

How the values were obtained:
[1] = tested on: patients with osteoarthritis, mainly located in the knee; assay: Blinded study vs piroxicam and placebo, analgesic effect on WOMAC scale (Example 5); format: in vivo, Humans
Text: The analgesic activity of a composition according to the invention comprising Vitis vinifera extract complexed with phospholipids, lipophilic extract of Zingiber officinale, lipophilic extract of Zanthoxylum piperitum and an unsaponifiable fraction of Olea europaea was compared with the activity of piroxicam and a placebo. In a blinded study conducted on 180 patients with osteoarthritis, mainly located in the knee, the composition of example 1 was compared with piroxicam and a placebo by conducting a three-month treatment after randomisation, and check-ups on the joint function for six months after discontinuance of the treatment. At the beginning, the analgesic effect, measured with the Western Ontario and McMaster University Osteoarthritis (WOMAC) scale, was evaluated after 7 days' treatment with two capsules/day of the composition of example 1 vs. two […] capsules of piroxicam or placebo. After the first 7 days, the treatment continued for three months, the analgesic effect being measured once a month.

[2] = tested on: patients suffering from joint disease of the knee with constant pain; assay: Analgesic activity on analogue pain scale 0 to 10 (Example 6); format: in vivo, Humans; conditions: second day
Text: 40 patients suffering from joint disease of the knee with constant pain were randomised and treated with two tablets a day, one in the morning and one in the evening, of the composition of example 4, or a placebo (consisting of the carrier only), or the ingredients of the composition of example 1 added individually to the placebo formulation in amounts equal to those present in the composition of example 4.
Efficacy was scored on an international analogue pain scale with scores from 0 to 10, 10 points indicating maximum pain and 0 the disappearance of pain. The effect was evaluated on the second day after administration of the tablet, in the morning 60 and 120 minutes after treatment.

Row | SMILES | result (analgesic effect, WOMAC scale) ([1]; 4th month, after discontinuance of the treatment) [%+/−38] | result (analgesic effect, WOMAC scale) ([1]; 5th month, after discontinuance of the treatment) [%+/−23] | efficacy maintained after discontinuance of the treatment ([1]; double-blind trial, after discontinuance) | result (analgesic effect, WOMAC scale) ([1]; during the third month's treatment, two capsules/day) [%+/−31.4] | tolerability ([1]; three-month treatment) | analgesic effect (comparison of the two treated groups) ([1]; three-month treatment, WOMAC) | Pain (scores) at time 60 min. ([2]; 60 minutes after treatment) | Pain (scores) at time 120 min. ([2]; 120 minutes after treatment) | Pain (scores) at time 0 ([2]; time 0 (before the morning tablet))
1 | CN1C(C(=O)Nc2ccccn2)=C(O)c2ccccc2S1(=O)=O [piroxicam] | −41 | −24 | needed to continue the treatment | −72 | had to be discontinued due to evident side effects | comparable analgesic effect |  |  | 
2 | CC(=O)Oc1cccc2c1C(=O)c1c(OC(C)=O)cc(C(=O)O)cc1C2=O [Diacerein, diacerein] |  |  |  |  |  |  | 8.2 ± 0.9 | 7.9 ± 0.8 | 9.1 ± 1.5
